# Laboratory results taken from publication PMC6768106, “The crystal structure of AcrR from Mycobacterium tuberculosis reveals a one‐component transcriptional regulation mechanism” (FEBS Open Bio, 2019).
# Molecular target: AcrR (Mycobacterium tuberculosis, UniProt O07229)
# Sequence (O07229 entry or part of it): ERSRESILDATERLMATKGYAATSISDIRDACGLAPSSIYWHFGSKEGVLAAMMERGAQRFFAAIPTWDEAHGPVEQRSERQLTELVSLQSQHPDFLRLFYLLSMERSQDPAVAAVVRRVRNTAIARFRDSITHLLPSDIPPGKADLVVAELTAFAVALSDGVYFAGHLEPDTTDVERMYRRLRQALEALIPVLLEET
structure (smiles),measurement,value
CCCCCCCCCCCCCCCC(=O)O [palmitate],STD-NMR; also EMSA (promoter DNA release) and CD titration,which reveals the binding between AcrR and palmitate
